Data published in US9955691B2, “Macrocyclic picolinamides as fungicides” (DOW AGROSCIENCES LLC, priority 2014, dated 2018).

Legend:
Type in all cases: in vivo
Leptosphaeria nodorum = experiment: Fungicidal activity: Wheat Glume Blotch (LEPTNO); conditions: 100 ppm, 1 DP (1 Day Protectant)
Procedure: Technical grades of materials were dissolved in acetone, which were then mixed with nine volumes of water containing 110 ppm Triton X-100. The fungicide solutions were applied onto wheat seedlings using an automated booth sprayer to run-off. All sprayed plants were allowed to air dry prior to further handling. All fungicides were evaluated using the aforementioned method for their activity vs. all target diseases, unless stated otherwise. Wheat leaf blotch and brown rust activity were also evaluated using track spray applications, in which case the fungicides were formulated as EC formulations, containing 0.1% Trycol 5941 in the spray solutions. Wheat plants (variety Yuma) were grown from seed in a greenhouse in 50% mineral soil/50% soil-less Metro mix until the first leaf was fully emerged, with 7-10 seedlings per pot. These plants were inoculated with an aqueous spore suspension of Septoria tritici either prior to or after fungicide treatments. After inoculation the plants were kept in 100% relative humidity (one day in a dark dew chamber followed by two to three days in a lighted dew chamber at 20° C.) to permit spores to germinate and infect the leaf. The plants were then transferred to a greenhouse set at 20° C. for disease to develop. When disease symptoms were fully expressed on the 1st leaves of untreated plants, infection levels were assessed on a scale of 0 to 100 percent disease severity. Percent disease control was calculated using the ratio of disease severity on treated plants relative to untreated plants. Evaluation of Fungicidal Activity: Wheat Glume Blotch (Leptosphaeria nodorum; Bayer Code […]) Wheat plants (variety Yuma) were grown from seed in a greenhouse in 50% mineral soil/50% soil-less Metro mix until the first leaf was fully emerged, with 7-10 seedlings per pot. These plants were inoculated with an aqueous spore suspension of Leptosphaeria nodorum 24 hr after fungicide treatments. After inoculation the plants were kept in 100% relative humidity (one day in a dark dew chamber followed by two days in a lighted dew chamber at 20° C.) to permit spores to germinate and infect the leaf. The plants were then transferred to a greenhouse set at 20° C. for disease to develop. Fungicide formulation, application and disease assessment followed the procedures as described in the Example A.

Cercospora beticola = experiment: Fungicidal activity: Leaf Spot of Sugar Beets (CERCBE); conditions: 100 ppm, 1 DP (1 Day Protectant), sugar beet
Procedure: Technical grades of materials were dissolved in acetone, which were then mixed with nine volumes of water containing 110 ppm Triton X-100. The fungicide solutions were applied onto wheat seedlings using an automated booth sprayer to run-off. All sprayed plants were allowed to air dry prior to further handling. All fungicides were evaluated using the aforementioned method for their activity vs. all target diseases, unless stated otherwise. Wheat leaf blotch and brown rust activity were also evaluated using track spray applications, in which case the fungicides were formulated as EC formulations, containing 0.1% Trycol 5941 in the spray solutions. Wheat plants (variety Yuma) were grown from seed in a greenhouse in 50% mineral soil/50% soil-less Metro mix until the first leaf was fully emerged, with 7-10 seedlings per pot. These plants were inoculated with an aqueous spore suspension of Septoria tritici either prior to or after fungicide treatments. After inoculation the plants were kept in 100% relative humidity (one day in a dark dew chamber followed by two to three days in a lighted dew chamber at 20° C.) to permit spores to germinate and infect the leaf. The plants were then transferred to a greenhouse set at 20° C. for disease to develop. When disease symptoms were fully expressed on the 1st leaves of untreated plants, infection levels were assessed on a scale of 0 to 100 percent disease severity. Percent disease control was calculated using the ratio of disease severity on treated plants relative to untreated plants. Evaluation of Fungicidal Activity: Leaf Spot of Sugar Beets (Cercospora beticola; Bayer Code CERCBE) Sugar beet plants (variety HH88) were grown in soil-less Metro mix and trimmed regularly to maintain a uniform plant size prior to test. Plants were inoculated with a spore suspension 24 hr after fungicide treatments. Inoculated plants were kept in a dew chamber at 22° C. for 48 hr then incubated in a greenhouse set at 24° C. under a clear plastic hood with bottom ventilation until disease symptoms were fully expressed. Fungicide formulation, application and disease assessment on the sprayed leaves followed the procedures as described in the Example A.

Erysiphe cichoracearum = experiment: Fungicidal activity: Powdery Mildew of Cucumber (ERYSCI); conditions: 100 ppm, 1 DP (1 Day Protectant)
Venturia inaequalis = experiment: Fungicidal activity: Apple Scab (VENTIN); conditions: 100 ppm, 1 DP (1 Day Protectant)
Rhyncosporium secalis = experiment: Fungicidal activity: Barley Scald (RHYNSE); conditions: 100 ppm, 1 DP (1 Day Protectant)
Procedure: Technical grades of materials were dissolved in acetone, which were then mixed with nine volumes of water containing 110 ppm Triton X-100. The fungicide solutions were applied onto wheat seedlings using an automated booth sprayer to run-off. All sprayed plants were allowed to air dry prior to further handling. All fungicides were evaluated using the aforementioned method for their activity vs. all target diseases, unless stated otherwise. Wheat leaf blotch and brown rust activity were also evaluated using track spray applications, in which case the fungicides were formulated as EC formulations, containing 0.1% Trycol 5941 in the spray solutions. Wheat plants (variety Yuma) were grown from seed in a greenhouse in 50% mineral soil/50% soil-less Metro mix until the first leaf was fully emerged, with 7-10 seedlings per pot. These plants were inoculated with an aqueous spore suspension of Septoria tritici either prior to or after fungicide treatments. After inoculation the plants were kept in 100% relative humidity (one day in a dark dew chamber followed by two to three days in a lighted dew chamber at 20° C.) to permit spores to germinate and infect the leaf. The plants were then transferred to a greenhouse set at 20° C. for disease to develop. When disease symptoms were fully expressed on the 1st leaves of untreated plants, infection levels were assessed on a scale of 0 to 100 percent disease severity. Percent disease control was calculated using the ratio of disease severity on treated plants relative to untreated plants. Evaluation of Fungicidal Activity: Barley Scald (Rhyncosporium secalis; Bayer Code […]) Barley seedlings (variety Harrington) were propagated in soil-less Metro mix, with each pot having 8 to 12 plants, and used in the test when first leaf was fully emerged. Test plants were inoculated by an aqueous spore suspension of Rhyncosporium secalis 24 hr after fungicide treatments. After inoculation the plants were kept in a dew room at 20° C. with 100% relative humidity for 48 hr. The plants were then transferred to a greenhouse set at 20° C. for disease to develop. Fungicide formulation, application and disease assessment on the sprayed leaves followed the procedures as described in the Example A.

[1] = tested on: Magnaporthe grisea; Anamorph: Pyricularia oryzae; conditions: 100 ppm, 1 DP (1 Day Protectant), rice
Phakopsora pachyrhizi = experiment: Fungicidal activity: Asian Soybean Rust (PHAKPA); conditions: 25 ppm, 1DP (1 Day Protectant)
Procedure: Evaluation of Fungicidal Activity: Asian Soybean Rust (Phakopsora pachyrhizi; Bayer Code PHAKPA)
Technical grades of materials were dissolved in acetone, which were then mixed with nine volumes of water containing 0.011% Tween 20. The fungicide solutions were applied onto soybean seedlings using an automated booth sprayer to run-off. All sprayed plants were allowed to air dry prior to further handling.
Soybean plants (variety Williams 82) were grown in soil-less Metro mix, with one plant per pot. Two weeks old seedlings were used for testing. Plants were inoculated either 3 days prior to or 1 day after fungicide treatments. Plants were incubated for 24 h in a dark dew room at 22° C. and 100% relative humidity then transferred to a growth room at 23° C. for disease to develop. Disease severity was assessed on the sprayed leaves.

Structure (SMILES) | LEPTNO disease control rating (Leptosphaeria nodorum) | CERCBE disease control rating (Cercospora beticola) | ERYSCI disease control rating (Erysiphe cichoracearum) | VENTIN disease control rating (Venturia inaequalis) | RHYNSE disease control rating (Rhyncosporium secalis) | PYRIOR disease control rating [1] | PHAKPA disease control rating (Phakopsora pachyrhizi)
CCCC[C@@H]1[C@@H](Cc2ccc(C(F)(F)F)cc2)COC[C@H](NC(=O)c2nccc(OC)c2OCOC(C)=O)C(=O)O[C@H]1C [compound 16] | A (>70) | A (>70) | A (>70) | A (>70) | A (>70) |  | 
COc1ccnc(C(=O)N[C@H]2COC[C@H](Cc3ccccc3)[C@@H](Cc3ccccc3)[C@H](C)OC2=O)c1OC(C)=O [compound 27] | A (>70) | A (>70) | B (≤70) |  | A (>70) | A (>70) | 
COc1ccnc(C(=O)N[C@H]2COC[C@H](c3ccccc3)[C@@H](c3ccccc3)[C@H](C)OC2=O)c1OCOC(C)=O [compound 7] |  | A (>70) | A (>70) |  |  | A (>70) | 
COc1ccnc(C(=O)N[C@H]2COC[C@H](Cc3ccccc3)[C@@H](Cc3ccccc3)[C@H](C)OC2=O)c1OCOC(C)=O [Cmpd. 3, ((2-(((3S,7R,8R,9S)-7,8-dibenzyl-9-methyl-2-oxo-1,5-dioxonan-3-yl)carbamoyl)-4-methoxypyridin-3-yl)oxy)methyl acetate] | A (>70) |  |  |  |  | A (>70) | A (>70)
COc1ccnc(C(=O)N[C@H]2COC[C@H](CC3CC3)[C@@H](c3ccccc3)[C@H](C)OC2=O)c1OC(C)=O [compound 100] | A (>70) | A (>70) | A (>70) |  | B (≤70) | A (>70) | 
CCCC[C@@H]1[C@@H](Cc2ccccc2)COC[C@H](NC(=O)c2nccc(OC)c2OCOC(=O)C(C)C)C(=O)O[C@H]1C [compound 1] | A (>70) | A (>70) | A (>70) | B (≤70) | A (>70) | A (>70) | 
